Patent US20240011070A1, “METHODS AND COMPOSITIONS FOR PROTEASE REPORTER ASSAYS AND MODULATORS” (712 North Inc., priority 2020, published 2024)
“Also recorded” adds a separate entry of the source. Read-outs that look alike come from different tables or passages of the source.

Key:
OMA1 protease [1] = biological target: T1, OMA1 protease (Homo sapiens, UniProt Q96E52); assay: Rep #01 luciferase reporter assay in Hek293T cells; details: for bioluminescence of reporter #01 (mitochondrial toxicity): Hek293T cells exposed 30 minutes
T1 sequence (Q96E52 144-524): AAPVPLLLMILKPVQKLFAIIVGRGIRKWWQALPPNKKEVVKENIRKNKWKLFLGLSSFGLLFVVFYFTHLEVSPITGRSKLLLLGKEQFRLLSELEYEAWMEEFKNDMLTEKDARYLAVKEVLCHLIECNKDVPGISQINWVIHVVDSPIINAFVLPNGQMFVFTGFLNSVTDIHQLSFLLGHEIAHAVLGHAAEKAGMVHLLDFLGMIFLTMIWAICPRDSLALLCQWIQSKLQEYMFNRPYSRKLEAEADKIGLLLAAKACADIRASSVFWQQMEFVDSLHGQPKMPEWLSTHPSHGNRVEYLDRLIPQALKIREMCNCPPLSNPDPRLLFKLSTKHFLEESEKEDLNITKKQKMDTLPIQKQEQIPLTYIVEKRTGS
Excerpt: Example 1 provides a nonlimiting example of generation and use of a reporter of present invention and illustrates its function. To this end, generation and use of reporter gene #01 (SEQ ID NO: 01) and reporter gene #15 (SEQ ID NO: 15) are described and their function compared to each other. The general design of a reporter of present invention is illustrated in FIG. 1A and its working principle in FIG. 1B. A reporter in general, and reporter gene #01 and reporter gene #15 in particular, can be generated as follows. DNA sequences of a reporter may be codon-optimized in silico or by any other way for expression in a suitable host. DNA sequences of reporter genes #01 and #15 were codon-optimized for expression in humans (SEQ ID NO: 02 and SEQ ID NO: 16, respectively). The (optimized) sequences were synthesized and cloned into a pcDNA3.1 expression vector under the control of a CMV promotor (see FIG. 1 for an illustration of such vector). Of course, an expression system and a host should match for best results. The host in this example were Hek293T cells, which were maintained under standard culture conditions in DMEM with 10% Fetal Bovine Serum and 1% Pen/Strep. For an experiment, Hek293T cells were seeded in opaque white tissue-culture treated 96-well plates at 80% confluency and transfected with vectors carrying reporter gene #01 and reporter gene #15 and 24 hours later incubated for 30 minutes at 37° C. in OptiMEM or in OptiMEM with 10 μM CCCP. After 30 minutes, the OptiMEM cell-culture media was replaced with luciferase substrate (furimazine, Promega) diluted 1:100 in OptiMEM, and bioluminescence was measured with a Fluoroskan Ascent FL (Thermo Scientific) using a 517 nm single-pass filter and 200 milliseconds integration time. […]
Example 5 illustrates how mitochondrial toxicity can be measured with reporter and assays of present invention. […] Hek293T cells expressing reporter #01 and #15 were exposed to CCCP, tipranavir and sorafenib (in OptiMEM) for 30 minutes before the medium was replaced with furimazine (1:100), and bioluminescence measured.

OMA1 protease [2] = biological target: T1, OMA1 protease; assay: Reporter hydrolysis in Hek293T reporter cells by Western blot; type: cell-based; design: The OMA 1 enzyme is dormant under physiological cell culture conditions in these cells; endogenous in cells; details: for Luke-S1 reporter cleavage in Western blots / Luke-TEV reporter cleavage in Western blots: 3 μM CCCP or 100 nM valinomycin
Protocol: For this example, transfected cells were selected by puromycin. […] […] If reporter #15 indeed is cleaved by OMA1, then phenanthroline should prevent this at least to a certain extend by inhibiting OMA1 and accordingly preserving the signal. Hek293T cells were transfected with reporter gene #15 as described in the preceding example. After 24 hours, the transfected cells were incubated with 500 μM phenanthroline in OptiMEM. After 1 hour of pretreatment, CCCP in OptiMEM/phenanthroline was added to a final concentration of 10 μM CCCP and cells incubated for another 30 minutes at 37° C. After 30 minutes, the medium was replaced with furimazine (1:100 in OptiMEM), and bioluminescence measured as described in Example 1.
(§1) OPA1 hydrolysis can be monitored by Western blotting. […] The predicted size of full-length Luke-S1 is 31.8 kDa.

L-OPA1 = assay: OPA1 hydrolysis in Hek293T cells by Western blot; type: cell-based; details: 30 minutes
Excerpt: as §1

OMA1 protease [3] = biological target: T1, OMA1 protease; assay: cell-based
Excerpt: Example 1 provides a nonlimiting example of generation and use of a reporter of present invention and illustrates its function. To this end, generation and use of reporter gene #01 (SEQ ID NO: 01) and reporter gene #15 (SEQ ID NO: 15) are described and their function compared to each other. The general design of a reporter of present invention is illustrated in FIG. 1A and its working principle in FIG. 1B. A reporter in general, and reporter gene #01 and reporter gene #15 in particular, can be generated as follows. DNA sequences of a reporter may be codon-optimized in silico or by any other way for expression in a suitable host. DNA sequences of reporter genes #01 and #15 were codon-optimized for expression in humans (SEQ ID NO: 02 and SEQ ID NO: 16, respectively). The (optimized) sequences were synthesized and cloned into a pcDNA3.1 expression vector under the control of a CMV promotor (see FIG. 1 for an illustration of such vector). Of course, an expression system and a host should match for best results. The host in this example were Hek293T cells, which were maintained under standard culture conditions in DMEM with 10% Fetal Bovine Serum and 1% Pen/Strep. For an experiment, Hek293T cells were seeded in opaque white tissue-culture treated 96-well plates at 80% confluency and transfected with vectors carrying reporter gene #01 and reporter gene #15 and 24 hours later incubated for 30 minutes at 37° C. in OptiMEM or in OptiMEM with 10 μM CCCP. After 30 minutes, the OptiMEM cell-culture media was replaced with luciferase substrate (furimazine, Promega) diluted 1:100 in OptiMEM, and bioluminescence was measured with a Fluoroskan Ascent FL (Thermo Scientific) using a 517 nm single-pass filter and 200 milliseconds integration time. […] Reporter #01 comprises a large part of OPA1's amino-terminus as mitochondrial targeting sequence, which is cleaved by the mitochondrial processing peptidase upon mitochondrial import (see Example 2). Reporter #15 was initially envisioned as a control for reporter #01. Reporter #15 therefore lacks the first 66 amino acids of reporter #01 believed to be essential for mitochondrial import.
Example 5 illustrates how mitochondrial toxicity can be measured with reporter and assays of present invention. The OMA1-OPA1 pathway basically serves as a “canary-in-the-coalmine” for a mitochondrial deterioration. […] Hek293T cells expressing reporter #01 and #15 were exposed to CCCP, tipranavir and sorafenib (in OptiMEM) for 30 minutes before the medium was replaced with furimazine (1:100), and bioluminescence measured.

OMA1 protease [4] = biological target: OMA1 protease (Mus musculus, UniProt Q9D8H7); details: Neuro2A cells
Excerpt: In this example, the S1-cleavage site of reporter #15 was replaced with a TEV-cleavage site (see also Example 6). Neuro2A cells were transfected with reporter #15-S1 and reporter #15-TEV and selected by puromycin. […] FIG. 7 provides an overview of the arrangement of elements of different reporter genes, which comprise inter alia the amino acid sequences of SEQ ID NO: 01 (Rep #01), SEQ ID NO: 03 (Rep #04), SEQ ID NO: 09 (Rep #08), SEQ ID NO: 13 (Rep #10), and SEQ ID NO: 15 (Rep #15).

NanoLuc luciferase = biological target: T2, NanoLuc luciferase (Oplophorus gracilirostris, UniProt Q9GV45, A31E/A60N/A81I/F95D/I117V/K70R/L54V/L99Q/M102K/N193R/P142E/Q151K/Q38R/Q45L/V71I/Y165I); assay: Luke (native NanoLuc) control cell assay in Hek293T cells; type: cell-based
T2 construct: expressed in transfected cells; host or cells: 'Luke' cells
Excerpt: Example 6 refers to FIG. 11 and introduces the Luke-S1 reporter cell line, which is based on a modified NanoLuc complementation system (Dixon, et al. ACS Chem Biol (2016) 11(2): 400-8). […] Luke-S1 is targeted to the mitochondrial inner membrane by an 86 amino acid portion of OPA1's c-terminus with the protein sequence SEQ ID NO: 27 and the DNA sequence SEQ ID NO:28. A reporter in which the S1 site was replaced by a TEV cleavage site (referred to as ‘Luke-TEV’) and the native NanoLuc enzyme (referred to as ‘Luke’) served as controls.

OMA1 protease [5] = biological target: T1, OMA1 protease; assay: Luke-TEV (TEV site instead of S1) reporter assay in Hek293T cells; type: cell-based; design: The OMA 1 enzyme is dormant under physiological cell culture conditions in these cells; endogenous in cells
OMA1 protease [6] = biological target: T1, OMA1 protease; assay: Rep #15 / Luke-S1 assay for OMA1 inhibitors (preincubation with test compound, then OMA1 activator); type: cell-based; design: The OMA 1 enzyme is dormant under physiological cell culture conditions in these cells; endogenous in cells; details: 500 μM phenanthroline 1 hour, then 10 μM CCCP 30 minutes
Protocol: Example 2 refers to FIG. 4 and illustrates hydrolysis of reporter #01 and reporter #15. For this example, transfected cells were selected by puromycin. Reporter cells were exposed for 30 minutes to 10 μM CCCP before being harvested in RIPA buffer and subjected to 12% SDS-PAGE followed by Western-blotting. […] Full-length reporter #01 has a predicted size of 39.6 kDa but was not detected in Western blots. […] At the same time, reporter #15 is not processed upon import, but migrated at its expected size of 31.9 kDa. (Example 7 establishes mitochondrial import by showing co-migration of reporter #15 with OPA1 and OMA1 in mitochondria-enriched fractions.) Reporter #15 appears to be more abundant and stable, which may explain its better performance. […] This provides additional evidence that reporter #15 is indeed localized in mitochondria where it is recognized and hydrolyzed by OMA1. […] Therefore, phenanthroline was used as a positive control in the reporter assay. If reporter #15 indeed is cleaved by OMA1, then phenanthroline should prevent this at least to a certain extend by inhibiting OMA1 and accordingly preserving the signal. Hek293T cells were transfected with reporter gene #15 as described in the preceding example. […] After 30 minutes, the medium was replaced with furimazine (1:100 in OptiMEM), and bioluminescence measured as described in Example 1. […]

Sequence of OMA1 protease (Mus musculus, UniProt Q9D8H7) (Q9D8H7 140-521): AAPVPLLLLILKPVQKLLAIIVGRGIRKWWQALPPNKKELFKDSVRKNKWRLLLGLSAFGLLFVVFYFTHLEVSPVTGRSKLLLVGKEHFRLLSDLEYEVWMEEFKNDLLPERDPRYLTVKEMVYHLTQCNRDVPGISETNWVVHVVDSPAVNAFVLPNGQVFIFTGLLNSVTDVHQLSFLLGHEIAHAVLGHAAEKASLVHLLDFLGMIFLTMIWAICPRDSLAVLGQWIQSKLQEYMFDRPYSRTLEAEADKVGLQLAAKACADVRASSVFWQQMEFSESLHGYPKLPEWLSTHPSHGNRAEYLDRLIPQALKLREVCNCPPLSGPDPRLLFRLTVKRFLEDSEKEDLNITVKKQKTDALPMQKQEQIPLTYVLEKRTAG
T2 sequence (Q9GV45 with tags, fused parts or gaps with the stated changes): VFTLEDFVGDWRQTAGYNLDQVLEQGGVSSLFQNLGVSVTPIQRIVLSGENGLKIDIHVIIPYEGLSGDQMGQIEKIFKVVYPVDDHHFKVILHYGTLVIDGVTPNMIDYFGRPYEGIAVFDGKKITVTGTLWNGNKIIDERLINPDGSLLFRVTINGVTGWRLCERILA

Structure (SMILES): N#CC(C#N)=NNc1cccc(Cl)c1 [CCCP, carbonyl cyanide m-chlorophenyl hydrazone]
- bioluminescence signal of reporter #01 (OMA1 protease [1]; 10 μM CCCP, 30 minutes): significantly reduced
- bioluminescence of reporter #01 (mitochondrial toxicity) (OMA1 protease [1]): significantly reduced bioluminescence
- Luke-S1 reporter cleavage in Western blots (OMA1 protease [2]): induced cleavage of the Luke-S1 reporter
- Luke-TEV reporter cleavage in Western blots (OMA1 protease [2]): cleaved
- processing of reporter #01 in Western blot (OMA1 protease [2]; 10 μM CCCP, 30 minutes): led to processing
- processing of reporter #15 in Western blot (OMA1 protease [2]; 10 μM CCCP, 30 minutes): led to processing
- OPA1 hydrolysis in Western blots (L-OPA1; 3 μM CCCP): complete disappearance of L-OPA1 isoforms; also recorded: complete L-OPA1 proteolysis

Structure (SMILES): COC1=CC(=O)O[C@@H](/C=C/c2ccccc2)C1 [kavain, Kavain]
- EC50 (OMA1 protease [3]): 14 µM

Structure (SMILES): CC(C)[C@@H]1NC(=O)[C@H](C)OC(=O)[C@@H](C(C)C)NC(=O)[C@@H](C(C)C)OC(=O)[C@H](C(C)C)NC(=O)[C@H](C)OC(=O)[C@@H](C(C)C)NC(=O)[C@@H](C(C)C)OC(=O)[C@H](C(C)C)NC(=O)[C@H](C)OC(=O)[C@@H](C(C)C)NC(=O)[C@@H](C(C)C)OC1=O [valinomycin]
- half maximal effective concentration (EC50) (OMA1 protease [4]; reporter #15-S1, 30 minutes): low nanomolar range
- half maximal effective concentration (EC50) (OMA1 protease [4]; reporter #15-TEV, 30 minutes): low nanomolar range
- Luke-S1 reporter cleavage in Western blots (OMA1 protease [2]): induced cleavage of the Luke-S1 reporter
- Luke-TEV reporter cleavage in Western blots (OMA1 protease [2]): cleaved
- real-time bioluminescence versus cells without valinomycin (NanoLuc luciferase; Luke, 100 nM valinomycin added with luciferase substrate, after 10 minutes): no notable differences
- effect on Luke bioluminescence (NanoLuc luciferase; dose-response, 30 minutes): no effects
- real-time bioluminescence versus cells without valinomycin (OMA1 protease [5]; Luke-TEV, 100 nM valinomycin added with luciferase substrate): much smaller difference
- effect on Luke-TEV signal (OMA1 protease [5]; dose-response, 30 minutes): only a minor signal reduction
- OPA1 hydrolysis in Western blots (L-OPA1; 0.1 μM (100 nM) valinomycin): sufficed for OPA1 cleavage; also recorded: complete L-OPA1 proteolysis
- EC50 (OMA1 protease [3]): 0.0176 µM
- Luke-S1 signal, cells transfected with OMA1 siRNA (OMA1 protease [3]; 100 nM valinomycin, 30 minutes): no significant signal reduction
- Luke-S1 signal, cells transfected with control siRNA (OMA1 protease [3]; 100 nM valinomycin, 30 minutes): significant signal reduction
- real-time bioluminescence versus cells without valinomycin (OMA1 protease [3]; Luke-S1, 100 nM valinomycin added with luciferase substrate, 25 minutes): marked signal reduction from the start of the measurement
- signal intensity normalized to untreated cells (OMA1 protease [3]; valinomycin treated controls of the cancer drug screen, untreated = 100%): 18.5%

Structure (SMILES): c1cnc2c(c1)ccc1cccnc12 [phenanthroline]
- bioluminescence signal of reporter #15 after pretreatment (OMA1 protease [6]): prevented reporter #15 deactivation and maintained the bioluminescence signal; also recorded: largely preserved

Structure (SMILES): CCC[C@@]1(CCc2ccccc2)CC(O)=C([C@H](CC)c2cccc(NS(=O)(=O)c3ccc(C(F)(F)F)cn3)c2)C(=O)O1 [tipranavir]
- bioluminescence of reporter #01 (mitochondrial toxicity) (OMA1 protease [1]): deactivated; also recorded: significantly reduced bioluminescence
- EC50 (OMA1 protease [3]): 9 µM
